Reference: PMC8365602 (Journal of Medicinal Chemistry, 2021)

Tests used:
5-LOX [1] = molecular target: T1, 5-LOX (Homo sapiens, UniProt P09917); experiment: 5-LOX product formation in activated PMNL; conditions: for remaining activity at 3 µM / remaining activity at 1 µM: PMNL; for remaining activity at 3 µM: read-out: 5-LOX PMNL residual activity at 3 μM; for remaining activity at 1 µM: read-out: 5-LOX PMNL residual activity at 1 μM (cells marked b);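 on all read-outs here: freshly isolated human PMNL in PBS pH 7.4 plus glucose, preincubated 10 min at 37 °C with compound, 5-LOX products (all-trans LTB4 isomers, 5-HETE) quantified by RP-HPLC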
T1 sequence (P09917 1-674): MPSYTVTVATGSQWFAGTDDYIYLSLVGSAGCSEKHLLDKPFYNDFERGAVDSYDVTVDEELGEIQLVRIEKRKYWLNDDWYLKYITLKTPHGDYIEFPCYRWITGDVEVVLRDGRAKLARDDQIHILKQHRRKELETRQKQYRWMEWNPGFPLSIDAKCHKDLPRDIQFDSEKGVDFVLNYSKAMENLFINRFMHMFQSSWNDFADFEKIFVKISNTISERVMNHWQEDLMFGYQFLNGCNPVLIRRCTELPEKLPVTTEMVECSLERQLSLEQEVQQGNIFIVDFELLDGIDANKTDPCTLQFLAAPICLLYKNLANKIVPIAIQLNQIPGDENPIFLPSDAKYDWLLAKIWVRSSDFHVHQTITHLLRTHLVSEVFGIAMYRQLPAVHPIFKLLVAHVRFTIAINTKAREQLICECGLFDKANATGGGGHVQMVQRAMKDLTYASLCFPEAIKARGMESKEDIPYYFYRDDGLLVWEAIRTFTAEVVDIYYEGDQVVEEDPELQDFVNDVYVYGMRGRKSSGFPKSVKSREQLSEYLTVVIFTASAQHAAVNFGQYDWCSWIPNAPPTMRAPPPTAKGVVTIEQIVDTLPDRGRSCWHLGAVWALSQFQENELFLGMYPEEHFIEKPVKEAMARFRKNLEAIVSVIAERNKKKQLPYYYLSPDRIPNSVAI
Experimental: These volunteers regularly donated blood (every 8–12 weeks) and were physically inspected by a clinician.
Erythrocytes were removed by dextran sedimentation and hypotonic lysis. PMNL were obtained from the cell pellet and platelets from the supernatant.
Freshly isolated PMNL (5 × 10^6) suspended in PBS pH 7.4 with 1 mg/mL glucose or freshly withdrawn human whole blood were preincubated with the test compounds for 10 min (or as indicated) at 37 °C. […] The reaction was stopped with an equal volume of methanol.

5-LOX [2] = molecular target: T1, 5-LOX; experiment: Cell-free 5-LOX activity (isolated human recombinant enzyme); conditions: for remaining activity at 1 µM: read-out: 5-LOX enzyme residual activity at 1 μM
Experimental: Human recombinant 5-LOX was expressed in E. coli Bl21 (DE3) cells that were transformed with pT3–5LOX (wt 5-LOX), 5-LOX_3W (triple mutation of Trp102Ala/Trp13Ala/Trp75Ala), or 5-LOX_R (single mutant of the Arg101Asp plasmid) and purified on an ATP-agarose column (Econo-Pac, Bio-Rad, Hercules, CA) by affinity chromatography.[6],[75]
Purified 5-LOX (0.5 μg in PBS pH 7.4 containing 1 mM EDTA and 1 mM ATP) was preincubated with the vehicle (DMSO) or test compounds for 10 min and prewarmed at 37 °C.

[3] = read-out: 5-LOX PMNL IC50, 5-LOX product formation in activated PMNL, mean ± SEM
[4] = read-out: 5-LOX enzyme IC50, isolated human 5-LOX, cell-free, mean ± SEM

IC50 (5-LOX [1]) [nM] | IC50 (5-LOX [2]) [nM] | SMILES | remaining activity at 3 µM (5-LOX [1]) [%] | IC50 (5-LOX [1]; [3]) [nM] | IC50 (5-LOX [2]; [4]) [nM] | remaining activity at 1 µM (5-LOX [2]) [%] | remaining activity at 1 µM (5-LOX [1]) [%]
 |  | C/C(=C\CC/C(C)=C/CC[C@]1(C)CCc2c(CN(C)C)c(O)cc(C)c2O1)CC/C=C(\C)C(=O)O [Compound 23] | 33.1 ± 8 | 2060 ± 450 | 70 ± 20 | 7.9 ± 3.6 | 
 |  | C/C(=C\CC/C(C)=C/CC[C@]1(C)CCc2c(CN(C)C)c(O)c(CN(C)C)c(C)c2O1)CC/C=C(\C)C(=O)O [Compound 24] | 82.1 ± 24.1 | > 3000 | > 1000 | 95.2 ± 7.9 | 
 |  | COC(=O)/C(C)=C/CC/C(C)=C/CC/C(C)=C/CC[C@]1(C)CCc2c(c(C)cc(O)c2C(=O)OC)O1 [Compound 25, (R)-Methyl-6-hydroxy-2-((3E,7E,11E)-13-methoxy-4,8,12-trimethyl-13-oxotrideca-3,7,11-trien-1-yl)-2,8-dimethylchroman-5-carboxylate] | 79.9 ± 3.6 | > 3000 | > 1000 | 54.5 ± 8.4 | 
 |  | Cc1cc(O)cc2c1O[C@](C)(CCCC(C)CCCC(C)CCCC(CO)CO)CC2 (stereo partly drawn) [Compound 26, 2-(11-((R)-6-Hydroxy-2,8-dimethylchroman-2-yl)-4,8-dimethylundecyl)propane-1,3-diol] | 81.3 ± 0.7 | > 3000 | > 1000 | 53.1 ± 7.4 | 
 |  | C/C(=C\CC/C(C)=C/CC[C@]1(C)CCc2c(C)c(O)cc(C)c2O1)CCC=C(CO)CO [Compound 27b] | 0.9 ± 0.5 | 100 ± 20 | 90 ± 20 | 0 | 
 |  | C/C(=C\CC/C(C)=C/CC[C@]1(C)CCc2cc(O)c(C)c(C)c2O1)CCC=C(CO)CO [Compound 27c] | 0.8 ± 0.2 | 50 ± 40 |  | 0.1 ± 0.1 | 
 |  | C/C(=C\CC/C(C)=C/CC[C@]1(C)CCc2cc(O)cc(C)c2O1)CCC=C(CO)CO [Compound 27d, δ-amplexichromanol] |  | 430 ± 40 |  | 1.8 ± 0.9 | 14.7 ± 1.6
 |  | C/C(=C\CC[C@]1(C)CCc2cc(O)cc(C)c2O1)CCC=C(CO)CO [Compound 28, (R,E)-2-(7-(6-Hydroxy-2,8-dimethylchroman-2-yl)-4-methylhept-4-en-1-ylidene)propane-1,3-diol] | 36.3 ± 6.5 | 2300 ± 260 | 170 ± 30 | 15 ± 2.4 | 
 |  | Cc1cc(O)cc2c1O[C@](C)(CCC=C(CO)CO)CC2 [Compound 29, (R)-2-(3-(6-Hydroxy-2,8-dimethylchroman-2-yl)propylidene)propane-1,3-diol] | 86.4 ± 0.8 | > 3000 | > 1000 | 79.7 ± 3.5 | 
 |  | C/C(=C\CC/C(C)=C/CC[C@]1(C)CCc2cc(OC(=O)CCC(=O)O)cc(C)c2O1)CCC=C(CO)CO [Compound 31, 4-(((R)-2-((3E,7E)-13-Hydroxy-12-(hydroxymethyl)-4,8-dimethyltrideca-3,7,11-trien-1-yl)-2,8-dimethylchroman-6-yl)oxy)-4-oxobutanoic Acid] |  | 450 ± 100 | 90 ± 30 | 1.1 ± 0.6 | 26.4 ± 6.7
 |  | C/C(=C\CC/C(C)=C/CC[C@]1(C)CCc2c(C)c(O)c(C=O)c(C)c2O1)CCC=C(CO)CO [Compound 33] | 7.5 ± 2.2 | 1380 ± 280 | 170 ± 50 | 8.9 ± 3.5 | 
 |  | C/C(=C\CC/C(C)=C/CC[C@]1(C)CCc2c(C=O)c(O)cc(C)c2O1)CCC=C(CO)CO [Compound 34] | 6.1 ± 0.1 | 1810 ± 320 | 170 ± 60 | 13.8 ± 4.4 | 
 |  | C/C(=C\CC/C(C)=C/CC[C@]1(C)CCc2c(CN3CCCC3)c(O)cc(C)c2O1)CCC=C(CO)CO [Compound 35, 2-((4E,8E)-11-((R)-6-Hydroxy-2,8-dimethyl-5-(pyrrolidin-1-ylmethyl)chroman-2-yl)-4,8-dimethylundeca-4,8-dien-1-ylidene)propane-1,3-diol] | 17.4 ± 2.4 | 1900 ± 110 | 170 ± 30 | 4.1 ± 0.2 | 
 |  | C/C(=C\CC/C(C)=C/CC[C@]1(C)CCc2c(CN(C)C)c(O)cc(C)c2O1)CCC=C(CO)CO [Compound 36, 2-((4E,8E)-11-((R)-5-((Dimethylamino)methyl)-6-hydroxy-2,8-dimethylchroman-2-yl)-4,8-dimethylundeca-4,8-dien-1-ylidene)propane-1,3-diol] | 63.9 ± 14.4 | > 3000 | 110 ± 20 | 3.7 ± 0.4 | 
 |  | C/C(=C\CC/C(C)=C/CC[C@]1(C)CCc2c(CN3CCOCC3)c(O)cc(C)c2O1)CCC=C(CO)CO [Compound 37, 2-((4E,8E)-11-((R)-6-Hydroxy-2,8-dimethyl-5-(morpholinomethyl)chroman-2-yl)-4,8-dimethylundeca-4,8-dien-1-ylidene)propane-1,3-diol] | 11.3 ± 3.3 | 1740 ± 90 | 120 ± 30 | 3.9 ± 0.6 | 
 |  | C/C(=C\CC/C(C)=C/CC[C@]1(C)CCc2c(CN3CCCCC3)c(O)cc(C)c2O1)CCC=C(CO)CO [Compound 38, 2-((4E,8E)-11-((R)-6-Hydroxy-2,8-dimethyl-5-(piperidin-1-ylmethyl)chroman-2-yl)-4,8-dimethylundeca-4,8-dien-1-ylidene)propane-1,3-diol] | 11.7 ± 1.8 | 1950 ± 70 | 110 ± 20 | 5.1 ± 0.9 | 
 |  | C/C(=C\CC/C(C)=C/CC[C@]1(C)CCc2c(CN3CCN(C)CC3)c(O)cc(C)c2O1)CCC=C(CO)CO [Compound 39, 2-((4E,8E)-11-((R)-6-Hydroxy-2,8-dimethyl-5-((4-methylpiperazin-1-yl)methyl)chroman-2-yl)-4,8-dimethylundeca-4,8-dien-1-ylidene)propane-1,3-diol] | 21.6 ± 6.8 | 2030 ± 160 | 310 ± 70 | 16 ± 1.9 | 
 |  | C/C(=C\CC/C(C)=C/CC[C@]1(C)CCc2c(CN3CCN(C)CC3)c(O)c(CN3CCN(C)CC3)c(C)c2O1)CCC=C(CO)CO [Compound 40, 2-((4E,8E)-11-((R)-6-Hydroxy-2,8-dimethyl-5,7-bis((4-methylpiperazin-1-yl)methyl)chroman-2-yl)-4,8-dimethylundeca-4,8-dien-1-ylidene)propane-1,3-diol] | 77.8 ± 7.6 | > 3000 | > 1000 | 50.3 ± 4.1 | 
 |  | CC(=O)c1cc2c(C)c3c(c(C)c2oc1=O)CC[C@@](C)(CC/C=C(\C)CC/C=C(\C)CCC=C(CO)CO)O3 [Compound 41, (R)-3-Acetyl-7-((3E,7E)-13-hydroxy-12-(hydroxymethyl)-4,8-dimethyltrideca-3,7,11-trien-1-yl)-5,7,10-trimethyl-8,9-dihydropyrano[2,3-g]chromen-2(7H)-one] | 12.4 ± 0.7 | 1250 ± 200 | 630 ± 130 | 35.1 ± 5.7 | 
 |  | CC(=O)c1cc2c3c(c(C)cc2oc1=O)O[C@](C)(CC/C=C(\C)CC/C=C(\C)CCC=C(CO)CO)CC3 [Compound 42, (R)-2-Acetyl-8-((3E,7E)-13-hydroxy-12-(hydroxymethyl)-4,8-dimethyltrideca-3,7,11-trien-1-yl)-6,8-dimethyl-9,10-dihydropyrano[3,2-f]chromen-3(8H)-one] | 15.3 ± 6.9 | 1440 ± 420 | 210 ± 20 | 23.3 ± 2.3 | 
 |  | CCOC(=O)c1cc2c3c(c(C)cc2oc1=O)O[C@](C)(CC/C=C(\C)CC/C=C(\C)CCC=C(CO)CO)CC3 [Compound 43, Ethyl-(R)-8-((3E,7E)-13-hydroxy-12-(hydroxymethyl)-4,8-dimethyltrideca-3,7,11-trien-1-yl)-6,8-dimethyl-3-oxo-3,8,9,10-tetrahydropyrano[3,2-f]chromene-2-carboxylate] | 8.1 ± 1 | 1580 ± 210 | 470 ± 140 | 29.3 ± 2.6 | 
390 ± 180 | 90 | COc1ccc(C2OCC(=CCC/C(C)=C/CC/C(C)=C/CC[C@]3(C)CCc4c(C)c(O)c(CO)c(C)c4O3)CO2)cc1OC (stereo partly drawn) [Compound 46, (2R)-2-((3E,7E)-11-(2-(3,4-Dimethoxyphenyl)-1,3-dioxan-5-ylidene)-4,8-dimethylundeca-3,7-dien-1-yl)-7-(hydroxymethyl)-2,5,8-trimethylchroman-6-ol] | 22.2 ± 8.8 |  |  | 0.7 ± 0.1 | 
 |  | COc1ccc(C2OCC(=CCC/C(C)=C/CC/C(C)=C/CC[C@]3(C)CCc4c(C)c(O)c(C=O)c(C)c4O3)CO2)cc1OC (stereo partly drawn) [Compound 47] | 84 ± 8.5 | > 3000 | > 1000 | 58.7 ± 4.6 | 
